In assay [1] the test system is S. aureus strains wt, recAmut, grlA542, grlA542recAmut. Kind of assay: MIC for S. aureus wt, recAmut, grlA542 and grlA542recAmut strains. The assay is classed as cell-based. As to conditions: Staphylococcus aureus.
The subject of the next assay is wild type E. coli. Kind of assay: Growth of wild type E. coli in the presence of quinolone (OD600). The assay is classed as cell-based. The text has this:
Each deletion strain was constructed by replacing the chromosomal copy of the relevant gene in a wild type E. coli strain (K-12) with a selectable antibiotic resistance gene, essentially as described, to create a precise gene deletion (Datsenko, K. A. and Wanner, B. L., “One-step inactivation of chromosomal genes in Escherichia coli K-12 using PCR products”, Proc Natl Acad Sci USA, 97, 6640-6645, […]); Baba, T., Ara, T., Okumura, Y., iki Hasegawa, M., Takai, Y., Baba, M., Oshima, T., Tomita, M., Wanner, B. and Mori, H. (2003) Systematic construction of single gene deletion mutants in Escherichia coli K-12 (in preparation) and see also the web site at ecoli.aist-nara.ac.jp/gb5/Resources/deletion/deletion.html).
For each mutant, the ratio of growth of the mutant in the presence of a sublethal concentration of quinolone to growth of the mutant in the absence of quinolone was calculated after 12 hours of growth at 37° C., based on OD600 measurements. […]

In another assay the test system is E. coli MG1655. The experiment in a line: Survival assay (CFU) of E. coli MG1655 recA+ / recA− after exposure to Nor. It is filed as cell-based. As to conditions: wild type background, 3 hours of exposure to Nor 0.1 μg/mL. The protocol: The ability of these fours strains to survive exposure to Nor was then tested. The experiment was performed as follows. Cultures were grown to early log phase in LB at 37° C. with shaking. At the 0 time point Nor was added to the cultures to a final concentration of 0.1 μg/mL. This concentration of Nor is just below the MIC for strain MG1655 under these growth conditions. Samples of the cells were collected and washed in PBS at 0, 30, 90 and 180 min time points. The number of viable cells was determined by plating the cells from each time point on LB agar and counting colonies. The CFU counts were normalized based on the time 0 time point inoculum for each culture (i.e., the CFU count obtained from the 0 time point inoculum was taken to represent 100% survival) and the log % survival was plotted (FIG. 3).
The recA deletion caused a 10,000 fold increase in quinolone sensitivity in a wild type background after 3 hours of exposure to Nor. […] In addition, inhibiting the expression and/or activity of E. coli RecA (or its homolog in other bacteria) is expected to render bacterial strains that have acquired resistance to quinolones (e.g., due to mutation in one or more subunits of the bacterial gyrase or topoisomerase IV and/or due to increased copy number of a gene encoding one of these polypeptides) sensitive once again to these compounds.

In assay [2] the test system is S. aureus RN4220 and RN4220 recA−. Kind of assay: Survival assay in the RN4220 background after exposure to Nor. It is filed as cell-based. As to conditions: RN4220 recA− vs RN4220, 3 hours of exposure to Nor 0.5 μg/mL. The protocol: The survival ability of RN4220 and RN4220 recA^− following exposure to Nor was then tested as described in Example 2 for E. coli strains. The recA null mutant and parental strains (RN4220 recA^− and RN4220, respectively) were grown to early log phase in LB at 37° C. with shaking. At the 0 time point Nor was added to the cultures to a final concentration of 0.5 μg/mL, which is just below the MIC for wild type cells (RN4220). Samples of the cells were collected and washed in PBS at 0, 30, 90 and 180 minutes time points. The number of viable cells was determined by plating the cells on LB from each time point and counting colonies. The CFU counts were normalized based on the time 0 time point inoculum for each culture (i.e., the CFU count obtained from the 0 time point inoculum was taken to represent 100% survival) and the log % survival was plotted (FIG. 5).
It was concluded that recA is essential for survival in the presence of quinolones (FIG. 5). As in E. coli, recA deletion causes 10,000× increase in quinolone sensitivity compared to the parental strain after 3 hours of exposure to Nor.

Assay [3] deals with recA promoter (prec::GFP) in MG1655. Kind of assay: Cell-based recA promoter::GFP reporter assay. Also noted: species or system E. coli. As to conditions: recA+ bacteria with reporter construct, in the presence of norfloxacin. The source says:
As discussed above, the recA promoter is induced when RecA becomes activated as a result of exposure to DNA damaging agents. The present Applicants hypothesized that exposure to a quinolone may have a similar effect on the recA promoter and that this effect could be exploited to develop a cell-based assay for inhibitors of RecA. A low copy reporter plasmid was used in which the recA promoter controls transcription of the mRNA encoding green fluorescent protein (GFP). The plasmid, referred to herein as prec::GFP, has been previously described (Ronen, 2002). See also Kuang, 2004. prec::GFP contains 2821707-2821893 of the E. coli MG1655 genome (numbering based on the sequenced E. coli genome as reported in Blattner, F. R., et al., Science, 277, pp. 1453-1474, 1997) cloned upstream of a promoterless GFPmut3 gene in a low copy pSC101 origin plasmid as described (Kalir, S., et al., Science, 292, pp. 2080-2083, 2001).
The prec::GFP plasmid was introduced into MG1655 and MG1655 recA null strains and measured the fluorescence emitted by GFP in the presence or absence of quinolone as compared with background fluorescence detected from cultures of MG1655 lacking the plasmid. Briefly cells of these three strains were grown to early log phase in LB at 37° C. with shaking. […] After 60 minutes, fluorescence due to GFP expression from the reporter plasmid was measured using a spectrophotometer.
On the technique in general: In a reporter assay the amount or activity of a reporter protein is the signal.

Structures are written as SMILES. Converted amounts (≈) assume the structure as drawn.

What is called MIC is the lowest concentration found to suppress growth. For `CCn1cc(C(=O)O)c(=O)c2cc(F)c(N3CCNCC3)cc21` [Nor, norfloxacin], the MIC worked out at 12.5 µg/mL (≈ 39.1 µM) in assay [1] (strain grlA542 (quinolone resistant)), 1.56 µg/mL (≈ 4.89 µM) in assay [1] (strain grlA542recAmut), 0.19 µg/mL (≈ 0.595 µM) in assay [1] (strain recAmut) and 0.78 µg/mL (≈ 2.44 µM) in assay [1] (strain wt). In the assay with wild type E. coli (0.05 μg/mL Nor (sublethal concentration)), the “bacterial growth, % of wild type levels” value is reported as 80%. For the same compound, in the assay with wild type E. coli (wild type E. coli), the “concentration that fully inhibits growth of wild type E. coli (lethal concentration)” value worked out at 0.1 µg/mL. The “increase in quinolone sensitivity caused by recA deletion” value in the assay on E. coli MG1655 was 10,000 fold. Also, in assay [2], the “increase in quinolone sensitivity caused by recA deletion compared to parental strain” value is on record as 10,000 ×. Besides, the “transcription of the recA:GFP reporter gene” value in assay [3] is given as “increased transcription of the reporter gene”.

Source of the values: patent publication US20090264342A1, “COMPOSITIONS AND METHODS FOR ANTIBIOTIC POTENTIATION AND DRUG DISCOVERY” (priority 2006, published 2009).
